Key:
PDE3 = test: Inhibition of PDE3 activity and Lineweaver-Burk analysis; assay type: biochemical, guinea pig
Method: Activities of PDE1–5, partially separated from guinea pig lungs and hearts according to the method described by Ko et al., were measured with a two-step procedure according to the method of Thompson and Appleman, using cAMP with [^3H]-cAMP or cGMP with [^3H]-cGMP as substrates. The enzyme pμreparation (25 μL) was incubated for 30 min at 37°C in a total assay volume of […] containing 50 mM Tris-HCl (pH 7.4), 3 mM MgCl2, 1 mM dithiothreitol, 0.05% BSA, 1 μM cAMP with 0.2 μCi [^3H]-cAMP as a substrate alone or in the presence of 0.1 units calmodulin with 10 μM CaCl2 or 5 μM cGMP, and 1 μM cGMP with 0.2 μCi [^3H]-cGMP as another substrate alone or in the presence of 0.1 units calmodulin with 10 μM CaCl2. […] The reagents and homogenate were mixed on ice, and the reaction was initiated by transferring the mixture to a water bath at 37°C. Following a 30-min incubation, the reaction was stopped by transferring the reaction vessel to a bath of boiling water for 3 min. After cooling on ice, 20 μL of a 1 mg/mL solution of C. atrox snake venom was added to the reaction mixture, and the mixture was incubated at 37°C for 10 min. Unreacted [^3H]-cAMP or [^3H]-cGMP was removed by the addition of 500 μL of a 1-in-1 Tris-HCl (40 mM) buffer suspension of Dowex resin (1 × 8-200) with incubation on ice for 30 min. Each tube was then centrifuged for 2 min at 3700 g, and 150 μL of the supernatant was removed for liquid scintillation counting. […] The total protein in each fraction used was assayed according to the method described by Bradford. The PDE activities are shown as nmol/mg/min in the Lineweaver-Burk analysis.

[1] = test system: OVA-sensitized and challenged BALB/c mice; test: Inflammatory cells in BALF; assay type: in vivo, mouse
Method: (§1) Ten female BABL/c mice in each group were sensitized by an intraperitoneal (i.p.) injection of 20 μg of OVA emulsified in 2.25 mg aluminum hydroxide gel in a total volume of 100 μL on days 0 and 14. The mice were challenged via the airway by 1% OVA in saline for 30 min on Days 28, 29 and 30 by ultrasonic nebulization. Six weeks after the last of three primary OVA challenges, the mice were exposed to 1% OVA for 30 min by nebulization as a secondary challenge. AHR was assessed on Day 74 (48 h after 1% OVA provocation) in each group. […] For comparison, sham-treated mice were sensitized but challenged with saline instead of 1% OVA (non-challenged). The vehicle, a mixture of alcohol : DMSO : 30% HPβCD : saline (0.5 : 0.5 : 1 : 8 , v/v), or S-petasin was injected at a volume of 0.01 mL/g of body weight. AHR was measured in unrestrained animals by barometric plethysmography using a whole-body plethysmograph (WBP) and analyzed using software of Life Science Suite P3 Analysis Modules (Gould, LDS Test and Measurement LLC, Valley View, OH, USA). The mice were placed into the main chamber of the WBP, and the baseline enhanced pause (P enh) value was determined. Then the mice were nebulized first with phosphate-buffered saline (PBS), and subsequently with increasing doses (6.25–50 mg/mL) of MCh for 3 min for each nebulization, followed by readings of breathing parameters for 3 min after each nebulization with determination of P enh values. Twenty-four hours after the P enh determination, these mice were anesthetized with pentobarbital (50 mg/kg, i.p.), and lavaged via a tracheal tube with PBS (1 × 1.0 mL, 37°C). After lavage, blood was collected from the jugular vein and allowed to sit so that it would coagulate. The collected bronchoalveolar lavage fluid (BALF) and coagulated blood were, respectively, centrifuged at 630 g for 7 min and at 3700 g for 10 min at 4°C, respectively. After centrifugation, the supernatants of BALF and serum were stored at −20°C until the determinations of cytokines, including interleukin (IL)-2, IL-4, IL-5, tumor necrosis factor (TNF)-α and interferon (IFN)-γ by flow cytometric methods using mouse Th1/Th2 cytokine CBA kits, of total immunoglobulin E (IgE), and of total IgG2a using enzyme-linked immunosorbent assay (ELISA) kits (Pharmingen, San Diego, CA, USA) according to the respective recommendations of the manufacturer. OVA-specific IgE was measured as described previously with some modifications. Wells were coated with 100 μL of OVA (20 μg/mL) instead of the capture antibody. Levels are expressed in arbitrary units, where one arbitrary unit equals the optical density of the sample divided by the optical density of unchallenged mouse serum or BALF (standard). The pellet from BALF was re-suspended in ACK lysing buffer (1.658 g NH4Cl, 0.2 g KHCO3 and 1.44 mg EDTA in 200 mL of water) to lyse the residual erythrocytes in each sample. The number of inflammatory cells was counted using a hemocytometer (Hausser Scientific, Horsham, PA, USA). Cytospun slides were stained and differentiated in a blinded fashion by counting at least 100 cells under light microscopy.

[2] = test system: OVA-sensitized and challenged BALB/c mice; test: Cytokines in BALF (CBA flow cytometry); assay type: in vivo, mouse
Method: as §1

female BALB/c mice = test: Xylazine/ketamine-induced anesthesia; assay type: in vivo, mouse; conditions: 10–100 μmol/kg s.c., 1 h before anesthesia
Method: According to the method described by Robichaud et al. and modified by us, S-petasin (10–100 μmol/kg, s.c.) or rolipram (0.01–1 μmol/kg, s.c.), a reference drug, was injected into 8–12 week-old female BALB/c mice 1 h or 15 min, respectively, prior to an i.p. injection of xylazine (10 mg/kg)/ketamine (70 mg/kg). The vehicle (control) for S-petasin or for rolipram was a mixture of alcohol : DMSO : 30% HPβCD : saline (0.5 : 0.5 : 1 : 8 , v/v), or alcohol : DMSO : PEG 400 : saline (0.5 : 0.5 : 1 : 8, v/v), respectively. After loss of the righting reflex (i.e., when a mouse remained on its back and no longer spontaneously righted itself to a prone position), the duration of anesthesia was measured until its return as an endpoint.

[3] = 30 μmol/kg s.c., exception at 10 μmol/kg

## C=C(C)[C@@H]1C[C@@]2(C)C(=CC1=O)CC[C@@H](OC(=O)/C=C\SC)[C@@H]2C [S-Petasin]
PDE3; Lineweaver-Burk analysis, cAMP substrate, read-out: Ki on PDE isozyme 3
  Ki: 25.3 ± 2 µM
PDE3; Lineweaver-Burk analysis, S-petasin 3–30 μM, milrinone 0.3–3 μM
  Mode of inhibition of PDE3 activity: competitively inhibited
PDE3; mean ± SEM (n), read-out: IC50 on PDE isozyme 3
  IC50: 25.5 ± 1.5 µM
[1]; [3]
  Increase in lymphocytes in BALF: significantly suppressed
[1]; 10–30 μmol/kg s.c.
  Increase in eosinophils in BALF: significantly suppressed
  Increase in neutrophils in BALF: significantly suppressed
  Increase in total inflammatory cells in BALF: significantly suppressed
  Macrophages in BALF: not affected
[2]; [3]
  Increase in IL-4 level in BALF: significantly suppressed
[2]; 10–30 μmol/kg s.c.
  Increase in IFN-γ level in BALF: significantly suppressed
  Increase in IL-2 level in BALF: significantly suppressed
  Increase in IL-5 level in BALF: significantly suppressed
  Increase in TNF-α level in BALF: significantly suppressed
Female BALB/c mice
  Duration of xylazine/ketamine-induced anesthesia: did not affect

Source: PMC3094704, “S-Petasin, the Main Sesquiterpene of Petasites formosanus, Inhibits Phosphodiesterase Activity and Suppresses Ovalbumin-Induced Airway Hyperresponsiveness” (Evidence-based Complementary and Alternative Medicine : eCAM, 2011)
